Results as given in patent US20250034117A1, “Deuterated 1,3 Dihydro -2H-indole-2-one derivatives” (HMNC Holding GmbH, priority 2023, published 2025).
Where two headings read alike, the source gives them in different places.

Key:
V1a = V1a (Homo sapiens (Human), UniProt P37288); test: Activity assay in the agonistic mode, V1a; assay type: biochemical
V2 = V2 (Homo sapiens (Human), UniProt P30518); test: Activity assay in the agonistic mode, V2; assay type: biochemical
OT receptors = OT receptors (Homo sapiens (Human), UniProt P30559); test: Activity assay in the agonistic mode, OT receptors; assay type: biochemical
[1] = In vitro human liver microsomal (HLM) stability assay; details: for Half-life: human liver microsomes, first order kinetics; for % Compound Remaining (Mean): 0.1 μM compound, human liver microsomes 0.1007 mg/ml
Description: (§1) Liver microsomal stability assays are conducted with human liver microsomes at a final liver microsomal protein concentration of 0.1007 mg per ml. Test compounds are prepared as solutions in 0.01% DMSO, 0.25% acetonitril and 0.25% methanol. The test compound is added to the reaction mixture at a final concentration of 0.1 μM and pre-incubated with pooled liver microsomes in phosphate buffer (pH 7.4) for 10 min on plate shaker in a 37° C. incubator. The reaction is initiated by adding a NADPH-generating system and incubated for 0, 15, 30, 45, and 60 min. The reaction is stopped by transferring the incubation mixture to Stop Buffer solvent (acetonitrile/methanol). Samples are then mixed and centrifuged. The supernatant samples are loaded onto the LC/MS/MS for analysis. Samples are analyzed by LC/MS/MS using multiple reaction monitoring (MRM). The UPLC system consists of a binary LC pump with autosampler, a C-18 column, and a gradient.
(§2) Four reference compounds are tested in each assay (Propranolol, imipramine, verapamil and terfenadine).
(§3) For data analysis, peak areas corresponding to the test compound are recorded. The compound remaining is calculated by comparing the peak area at each time point to time zero. The half-life is calculated from the slope of the initial linear range of the logarithmic curve of compound remaining (%) vs. time, assuming first order kinetics.

in vitro = details: human, microsomes, pH 7.4
Description: as §1, §2, §3

[2] = human, microsomes, 0.1 μM, pH 7.4
Description: as §1, §2, §3

[3] = 10 mg/kg p.o.; cited from earlier work

Chain of V2 (P30518 whole entry): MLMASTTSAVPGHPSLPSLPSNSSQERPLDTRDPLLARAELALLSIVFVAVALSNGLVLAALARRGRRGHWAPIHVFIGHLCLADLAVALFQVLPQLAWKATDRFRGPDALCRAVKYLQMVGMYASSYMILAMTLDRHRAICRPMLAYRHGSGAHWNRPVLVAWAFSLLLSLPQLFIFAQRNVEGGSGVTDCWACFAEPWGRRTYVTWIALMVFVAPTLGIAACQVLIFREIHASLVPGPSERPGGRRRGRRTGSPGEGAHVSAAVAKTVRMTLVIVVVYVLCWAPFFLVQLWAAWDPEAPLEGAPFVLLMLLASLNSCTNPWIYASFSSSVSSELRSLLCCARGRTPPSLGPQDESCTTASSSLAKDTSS
Chain of OT receptors (P30559 whole entry): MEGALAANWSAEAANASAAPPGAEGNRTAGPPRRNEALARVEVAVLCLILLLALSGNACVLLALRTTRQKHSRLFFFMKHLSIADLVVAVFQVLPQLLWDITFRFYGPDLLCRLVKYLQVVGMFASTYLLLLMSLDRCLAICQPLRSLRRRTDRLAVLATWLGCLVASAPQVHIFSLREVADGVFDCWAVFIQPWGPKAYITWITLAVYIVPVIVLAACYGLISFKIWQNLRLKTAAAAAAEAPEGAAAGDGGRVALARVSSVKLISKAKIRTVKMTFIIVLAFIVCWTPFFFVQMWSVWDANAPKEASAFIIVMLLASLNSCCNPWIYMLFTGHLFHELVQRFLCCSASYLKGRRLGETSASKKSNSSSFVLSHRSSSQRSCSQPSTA
Chain of V1a (P37288 whole entry): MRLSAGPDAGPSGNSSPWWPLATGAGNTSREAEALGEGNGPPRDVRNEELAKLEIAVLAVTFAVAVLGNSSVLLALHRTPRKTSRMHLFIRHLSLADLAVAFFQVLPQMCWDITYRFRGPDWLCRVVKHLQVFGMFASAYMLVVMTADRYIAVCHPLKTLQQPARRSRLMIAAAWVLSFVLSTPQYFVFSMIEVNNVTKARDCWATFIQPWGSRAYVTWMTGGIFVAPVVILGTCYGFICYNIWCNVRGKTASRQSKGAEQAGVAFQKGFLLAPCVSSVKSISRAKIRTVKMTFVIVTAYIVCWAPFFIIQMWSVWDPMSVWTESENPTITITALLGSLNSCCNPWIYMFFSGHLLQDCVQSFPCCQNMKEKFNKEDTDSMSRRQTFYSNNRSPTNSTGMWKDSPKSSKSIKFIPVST

## [2H]C([2H])([2H])N(C(=O)[C@@H]1C[C@@H](O)CN1[C@]1(c2ccccc2OC)C(=O)N(S(=O)(=O)c2ccc(OC)cc2OC)c2ccc(Cl)cc21)C([2H])([2H])[2H] [Example 1, (2S,4R)1-[(3R)-5-chloro-1-[(2,4-dimethoxyphenyl)sulfonyl]-2,3-dihydro-3-(2-methoxyphenyl)-2-oxo-1H-indol-3-yl]-4-hydroxy-N,N-dimethyl-d6-2-pyrrolidinecarboxamide]
V1a
  activity in the agonistic mode in comparison to undeuterated nelivaptan: no significant difference
V2
  activity in the agonistic mode in comparison to undeuterated nelivaptan: no significant difference
OT receptors
  activity in the agonistic mode in comparison to undeuterated nelivaptan: no significant difference
[1]
  Half-life: 4.7 min
[1]; incubation 0 min
  % Compound Remaining (Mean): 100.0%
[1]; incubation 15 min
  % Compound Remaining (Mean): 14.3%
[1]; incubation 30 min
  % Compound Remaining (Mean): 1.2%
[1]; incubation 45 min
  % Compound Remaining (Mean): 0.1%
[1]; incubation 60 min
  % Compound Remaining (Mean): 0.03%

## [2H]C([2H])([2H])Oc1ccccc1[C@@]1(N2C[C@H](O)C[C@H]2C(=O)N(C)C)C(=O)N(S(=O)(=O)c2ccc(OC)cc2OC)c2ccc(Cl)cc21 [Example 2, (2S,4R)1-[(3R)-5-chloro-1-[(2,4-dimethoxyphenyl)sulfonyl]-2,3-dihydro-3-(2-methoxy-d3-phenyl)-2-oxo-1H-indol-3-yl]-4-hydroxy-N,N-dimethyl-2-pyrrolidinecarboxamide]
V1a
  activity in the agonistic mode in comparison to undeuterated nelivaptan: no significant difference
V2
  activity in the agonistic mode in comparison to undeuterated nelivaptan: no significant difference
In vitro
  half-life at 0.1 μM: 4.1 min
OT receptors
  activity in the agonistic mode in comparison to undeuterated nelivaptan: no significant difference
[2]; 0 h
  % Compound Remaining (Mean): 100.0%
[2]; 0.25 h
  % Compound Remaining (Mean): 7.7%
[2]; 0.5 h
  % Compound Remaining (Mean): 0.4%
[2]; 0.75 h
  % Compound Remaining (Mean): 0.1%
[2]; 1 h
  % Compound Remaining (Mean): 0.02%

## [2H]C([2H])([2H])Oc1ccc(S(=O)(=O)N2C(=O)[C@@](c3ccccc3OC([2H])([2H])[2H])(N3C[C@H](O)C[C@H]3C(=O)N(C([2H])([2H])[2H])C([2H])([2H])[2H])c3cc(Cl)ccc32)c(OC([2H])([2H])[2H])c1 [Example 3, (2S,4R)1-[(3R)-5-chloro-1-[(2,4-dimeth-d6-oxyphenyl)sulfonyl]-2,3-dihydro-3-(2-methoxy-d3-phenyl)-2-oxo-1H-indol-3-yl]-4-hydroxy-N,N-dimethyl-d6-2-pyrrolidinecarboxamide]
V1a
  activity in the agonistic mode in comparison to undeuterated nelivaptan: no significant difference
V2
  activity in the agonistic mode in comparison to undeuterated nelivaptan: no significant difference
OT receptors
  activity in the agonistic mode in comparison to undeuterated nelivaptan: no significant difference
[1]
  Half-life: 6.2 min
[1]; incubation 0 min
  % Compound Remaining (Mean): 100%
[1]; incubation 15 min
  % Compound Remaining (Mean): 5.40%
[1]; incubation 30 min
  % Compound Remaining (Mean): 0.39%
[1]; incubation 45 min
  % Compound Remaining (Mean): 0.15%
[1]; incubation 60 min
  % Compound Remaining (Mean): 0.13%

## COc1ccc(S(=O)(=O)N2C(=O)[C@@](c3ccccc3OC)(N3C[C@H](O)C[C@H]3C(=O)N(C)C)c3cc(Cl)ccc32)c(OC)c1 [Nelivaptan, (2S,4R)-1-[(3R)-5-chloro-1-(2,4-dimethoxyphenyl)sulfonyl-3-(2-methoxyphenyl)-2-oxoindol-3-yl]-4-hydroxy-N,N-dimethylpyrrolidine-2-carboxamide, reference compound]
In vitro
  half-life at 0.1 μM: 3.2 min
[2]; 0 h
  % Compound Remaining (Mean): 100.0%
[2]; 0.25 h
  % Compound Remaining (Mean): 3.8%
[2]; 0.5 h
  % Compound Remaining (Mean): 0.4%
[2]; 0.75 h
  % Compound Remaining (Mean): 0.1%
[2]; 1 h
  % Compound Remaining (Mean): 0.03%
[3]
  duration of action: > 4 h
